Experiments:
[1] = Sensory evaluation of sweetness linger by expert panel, Example Set G (citric acid/potassium citrate base); assay type: in vivo; set-up: key: 0=no sweetness linger; 1=very slight sweetness linger; 2=slight sweetness linger; 3=moderate sweetness linger; 4=moderately high sweetness linger; 5=high sweetness linger; settings: scale 0-5; 400 ppm REBA in citric acid/potassium citrate composition equivalent to diet lemon-lime beverage, additive per example; sugar control 8 g in 100 ml citrate buffer
Protocol: Sensory evaluation of the samples prepared in Example Set G was carried out under the following protocol, similar to that described hereinabove. In this test protocol, none of the samples were swallowed. All samples were expectorated and the mouth was rinsed with water after the tasting. Immediately upon sensing maximal sweetness, the sample was expectorated, the mouth was rinsed with water and the rate of sweetness decay (“Sweetness Linger”) was measured, where attention was focused on the sweetness 3-4 min after the water rinse. After sample tasting was complete, a salty oyster cracker was chewed followed by a water rinse, and at least 5 minutes followed before tasting the next sample. […]
The effects of formulation change on the sweetness linger of 400 ppm REBA (equivalent to 8 g sucrose) in a citric acid/potassium citrate composition equivalent to that in a diet lemon-lime beverage were evaluated. The sweetness linger rating of this solution was determined to be 5.
8 g of sugar was dissolved in 100 ml of citrate buffer. The sweetness linger rating of this control sample was determined to be 0.

[2] = Sensory evaluation of sweetness linger by expert panel, Example Set H (phosphoric acid base); assay type: in vivo; set-up: key: 0=no sweetness linger; 1=very slight sweetness linger; 2=slight sweetness linger; 3=moderate sweetness linger; 4=moderately high sweetness linger; 5=high sweetness linger; settings: scale 0-5; 500 ppm REBA (H41: 360 ppm) in carbon-treated water, phosphoric acid (75%) to pH 2.4-2.5, additive per example; sugar control 10 g in 100 ml
[3] = Rate of dissolution in H2O at 25° C. of rebaudioside A polymorph and amorphous forms; assay type: physicochemical; settings: grade in words

| Rate of dissolution in H2O at 25° C. [3] | Compound | Sweetness linger [1] | Sweetness linger [2] |
| --- | --- | --- | --- |
| – | OC[C@H]1O[C@@](CO)(O[C@H]2O[C@H](CO)[C@@H](O)[C@H](O)[C@H]2O)[C@@H](O)[C@@H]1O [sugar, sucrose] | 0 | 0 |
| – | rebaudioside A | 5 | 5 |
| Very low | rebaudioside A [Form 1] | – | – |
| Intermediate | rebaudioside A [Form 2] | – | – |
| High | rebaudioside A [Form 3] | – | – |
| High | rebaudioside A [Form 4] | – | – |

Source: patent US20070116836A1, “High-Potency Sweetener Composition for Treatment and/or Prevention of Osteoporosis and Compositions Sweetened Therewith” (THE COCA-COLA COMPANY, priority 2005, published 2007)
